Measurements reported in US20030082135A1, “Pathway of RANTES-mediated chemokine synthesis in astrocytes and methods of use therefor” (priority 2001, published 2003).

Experiments:
[1] = test system: cultured mouse astrocytes; assay: RT-PCR for KC message in astrocytes; type: cell-based
[2] = test system: ICAM-1 and CX3CR1 on astrocytes; assay: Flow cytometric analysis of astrocyte receptor proteins; type: cell-based, mouse
Method: Flow cytometric analyses. PBS with 0.1% sodium azide was used for all washes and antibody (Ab) dilutions. Cells were pre-incubated 15 min with 0.5 μg Fc Block (BD-PharMingen) then 40 min at 4° C. with 1 μg of the appropriate Ab or matched isotype control immunoglobulin. Fluorescence-labelled cells were analyzed on a Coulter Profile II flow cytometer (Coulter, Hialeah, Fla.).
Another marker of activated astrocytes in MS and EAE lesions is the increased expression of the adhesion receptor, ICAM-1 (Lee, et al., 1999. J Immunol 165:4658-4666). Control astrocyte cultures were stained with anti-ICAM-1, and RANTES treatment further increased the levels of ICAM-1 protein expression about three-fold (mean intensity 50.2 vs. control of 16.3).
The cell surface receptor CX3CR1 was also selected for analysis since astrocyte expression of this receptor may facilitate interactions with endothelial cells and neurons that carry the membrane-tethered ligand for this receptor (Bacon, et al, 2000. J Neuroimmunol 104:92-97). Anti-CX3CR1 stained about 50% of the control astrocyte population. […] The modulation of receptor proteins peaked at 24 h; similar patterns were noted after a 48 h incubation with RANTES but the intensity levels were intermediate between the 0 and 24 h values.

murine KC promoter = assay: KC promoter luciferase reporter in transfected astrocytes; type: cell-based, mouse; settings: 100 ng/ml RANTES, 24 h
Text: Plasmids, transient transfection, and luciferase activity assay. The KC reporter plasmid was constructed by using a luciferase reporter gene pGL-3 basic vector (Promega, Madison, Wis.) driven by mouse KC promoter (−2878/+43). Wild-type p90RSK expression (WT pKH3) and dominant negative p90RSK expression (ΔΔ RSK pKH3) plasmids were obtained from Dr. John Blenis, Harvard Medical School. Astrocytes were transiently transfected with Lipofectamine 2000 reagent (Life Technologies, Gaithersburg, Md.) according to the manufacturer's protocol. After 24 h, the cells were stimulated with RANTES in absence or presence of the indicated inhibitor, and luciferase activity was determined after an additional 24 h, by the procedure according to the manufacturer (Promega, Madison, Wis.). Relative luciferase activity was normalized for cell lysate protein concentration as determined by BCA protein assay kit (Pierce, Rockford, Ill.). The Relative Fold Induction is the relative intensity of the experimental sample divided by the relative intensity of the medium control.
To establish whether RANTES up-regulation of chemokine production is mediated by activation of promoter elements, primary astrocyte cultures were transiently transfected with a murine KC promoter-luciferase construct, and reporter activity was monitored after RANTES treatment.

[3] = test system: phosphorylated RSK in astrocytes; assay: Immunofluorescence of phospho-p90RSK translocation; type: cell-based, mouse; settings: 100 ng/ml RANTES, 5 or 20 min
Method: Immunofluorescence. Astrocytes were grown on glass coverslips for a day; the cells were then serum-starved for three hours. Astrocytes were treated with RANTES for 5 or 20 minutes. Following treatment, cells were fixed in −20° C. methanol, permeabilized in ice-cold 0.2% Triton X-100 in PBS and incubated with phospho-p90RSK (Thr360/Ser364) antibody overnight at 4° C., followed by incubation with Alexa Fluor 555 goat anti-rabbit IgG (Molecular Probes, Eugene, Oreg.). Nuclei were stained with Hoechst 33258 (1:2000) for 5 min; coverslips were mounted on slides using the ProLong Antifade Kit (Molecular Probes, Eugene, Oreg.). Slides were stored at room temperature in the dark until observation.
The ability of RANTES to induce nuclear translocation of RSK was examined.

[4] = test system: intracellular cAMP in astrocytes; assay: Intracellular cAMP in astrocytes (EIA); type: cell-based, mouse
Method: FIG. 8 is a set of bar graphs showing that RANTES reduced intracellular cAMP accumulation in astrocytes. Panel A. Astrocytes were treated with the indicated doses of RANTES or TCA4 for 5 min. Intracellular cAMP was detected as described in Materials and Methods. Values represent the mean±S.E.M of triplicate experiments. Panel B. Kinetics of intracellular cAMP levels. Astrocytes were treated with 100 ng/ml RANTES for indicated times. Panel C. RANTES inhibited forskolin-induced intracellular cAMP accumulation. Astrocytes were pretreated with 1 μM forskolin for 1 h then stimulated with the indicated amount of RANTES for 5 min. Intracellular cAMP was determined by EIA. Values are presented as relative cAMP level and represent the mean±S.E.M. of triplicate experiments.
To further elucidate the RANTES-mediated signaling pathway in astrocytes, intracellular cAMP levels were evaluated following chemokine stimulation. Primary mouse astrocytes were incubated with the indicated dose of RANTES or the negative control chemokine, TCA4 for 5 min and monitored for cAMP levels. RANTES (100 ng/ml) decreased intracellular cAMP levels by 68% in a dose dependent fashion (FIG. 8A).

astrocytes = assay: ELISA of KC, TNF-α and MCP-1 protein in astrocyte culture supernatants; type: cell-based, mouse
Method: ELISA. For production of supernatants, 2×10^4 astrocytes were cultured in 96 well plates with medium or 100 ng/ml RANTES. Supernatants were collected after the indicated times. ELISA assays for KC and MCP-1 were performed as in Luo, Y., et al. 1999. J Immunol 163:3985, and for TNF-α as in Abromson-Leeman, et al. 2001. Eur J Immunol 31:527. Protein levels were determined using recombinant KC, MCP-1, or TNF-α (R & D Systems, Minneapolis, Minn.) as standards.

mouse thymocytes = assay: RPA for chemokine/cytokine transcripts in thymocytes; type: cell-based; settings: 100 ng/ml, 6 h
Method: To evaluate the cellular specificity of chemokine induction by RANTES-related chemokines, mouse thymocytes were treated with 2.5 μg/ml ConA, 100 ng/ml RANTES, or TCA4. After 6 h the cells were harvested for RNA extraction. […] Thus, the ability of RANTES-related chemokines to up-regulate chemokine/cytokine synthesis is not a generalized phenomenon in all cell types, but is specific for CNS cells such as astrocytes.

Substance: RANTES
- synthesis of KC message [1]: induce synthesis of KC message
- time of peak modulation of receptor proteins ([2]; RANTES): 24 h
- increase of ICAM-1 protein expression ([2]; RANTES treatment vs control astrocytes): about three
- ICAM-1 mean intensity ([2]; RANTES treatment, control 16.3): 50.2
- CX3CR1 mean intensity ([2]; RANTES treatment, control of 6.0 as printed): 14.3
- cells stained with anti-CX3CR1 ([2]; after RANTES, control about 50%): less than 30%
- stimulation of KC promoter-luciferase reporter activity (murine KC promoter): about four
- nuclear translocation of phosphorylated RSK [3]: nuclear translocation was noted at 5 min
- time within which intracellular cAMP was dramatically decreased ([4]; 100 ng/ml RANTES): ≤ 1 min
- decrease of intracellular cAMP levels ([4]; 100 ng/ml, 5 min): 68%
- effect on forskolin-induced cAMP accumulation ([4]; 1 μM forskolin 1 h, then RANTES 5 min): inhibited forskolin-induced cAMP accumulation in a dose dependent manner
- time at which KC protein reached a plateau (astrocytes; 100 ng/ml RANTES): 1 days
- time at which KC protein synthesis was detectable (astrocytes; 100 ng/ml RANTES): ≤ 8 h
- time at which KC protein was detected (astrocytes; 100 ng/ml RANTES): 12 h
- KC protein concentration in supernatant (astrocytes; 100 ng/ml RANTES, after 16 h): 20 to 30 ng/mL
- TNF-α protein level in supernatant (astrocytes; 100 ng/ml RANTES, after 16 h): less than 120 pg/ml
- TNF-α protein in culture supernatants (astrocytes; 6 h after RANTES stimulation): not detectable
- TNF-α protein in culture supernatants (astrocytes; 12 h after RANTES stimulation): greater than 100 pg/ml
- time of peak TNF-α protein levels (astrocytes; RANTES stimulation): 24 h
- RANTES and TNF-α RNA levels in thymocytes (mouse thymocytes): not to ber further enhanced
